This note sets out measurements from patent publication US8697643B2, “Method for controllably releasing a drug conjugate within subcutaneous tissue in response to the local concentration of an indicator” (priority 2005, dated 2014).

Data set [1] has as its system fasted normal rats (Male Sprague-Dawley). Description: blood glucose depression and serum insulin profiles after subcutaneous injection. It counts as in vivo, rat. As to the method:
Subcutaneous injections of insulin-polymer conjugates or insulin controls are administered at a dose between 1 and 10 equivalent U insulin/kg body weight behind the neck of fasted normal […] rats (Male Sprague-Dawley, 200-250 g, n=2-4). Blood samples are collected via tail vein bleeding at −15 and 0 minutes, and at 15, 30, 45, 60, 90, 120, 180, 240, 300 and 360 minutes after injection. Blood glucose values are measured using commercially available test strips (Precision Xtra, Abbott Laboratories, Abbott Park, Ill.). The remaining blood is centrifuged to obtain serum and stored in a freezer until measured for serum insulin levels. Serum insulin is measured using an ELISA kit (ALPCO Diagnostics, Windham, N.H.). Pharmacodynamic (PD) parameters such as time to reach minimum blood glucose concentration (Tnadir) and duration over which the blood glucose level remains below 70% of initial value (T70% BGL), are determined according to published methods for subcutaneous delivery. Pharmacokinetic (PK) parameters such as time to reach maximum serum insulin concentration (Tmax), mean insulin residence time (MRT), and mean insulin absorption time (MAT), are determined according to published methods for subcutaneous delivery using commercially available ELISA assays (ALPCO Diagnostics, Windham, N.H.). The blood glucose depression curve and corresponding serum insulin profile for each formulation may then be compared to those obtained for an insulin control to determine any differences in the timing and extent of the insulin action.
The in vivo digestion behavior of the insulin-glycogen conjugate was assessed via subcutaneous injection (alone without a glucose-binding molecule such as Con A) into normal male SD rats.
Subcutaneous injections of insulin-dextran were administered using 0.25 ml of a sterilized 1×PBS solution (0.88 equivalent mg insulin/[…]) behind the neck of two fasted normal rat groups (Male Sprague-Dawley, 200-250 g, n=4). Measurements of glucose and insulin values from tail vein blood samples were performed at −15 and 0 minutes, and at 15, 30, 45, 60, 90, 120, 180, 240, 300 and 360 minutes after injection.

The next data set concerns the target T1, human salivary amylase (Homo sapiens, UniProt P0DUB6).
T1 construct: from tissue; host or cells: human saliva (whole, diluted in 1x PBS)
T1 sequence (P0DUB6 16-511): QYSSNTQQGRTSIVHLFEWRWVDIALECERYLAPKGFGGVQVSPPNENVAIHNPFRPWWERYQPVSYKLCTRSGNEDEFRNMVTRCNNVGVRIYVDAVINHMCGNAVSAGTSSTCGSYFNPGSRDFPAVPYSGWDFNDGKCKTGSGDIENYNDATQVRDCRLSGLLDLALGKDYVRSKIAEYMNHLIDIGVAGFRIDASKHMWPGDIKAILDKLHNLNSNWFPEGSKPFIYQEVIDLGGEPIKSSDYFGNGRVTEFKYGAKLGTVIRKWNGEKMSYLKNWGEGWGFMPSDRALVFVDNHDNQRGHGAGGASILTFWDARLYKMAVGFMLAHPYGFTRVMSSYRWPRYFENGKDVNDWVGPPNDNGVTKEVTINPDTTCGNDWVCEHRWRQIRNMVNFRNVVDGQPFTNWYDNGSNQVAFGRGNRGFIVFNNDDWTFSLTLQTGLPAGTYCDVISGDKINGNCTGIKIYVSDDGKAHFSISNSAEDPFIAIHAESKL
Description: in vitro amylase digestion assay of insulin-glycogen (SDS-PAGE). It is filed as in vitro ADME. Particulars: SDS-PAGE after incubation with amylase. As to the method: As previously discussed, once an insulin-glycogen conjugate is released from an inventive glucose-responsive material, it is digested by amylases that breakdown the large molecular weight insulin-glycogen conjugate into low molecular weight conjugates in vivo. […] An in vitro amylase digestion assay was performed to qualify the proposed insulin-glycogen degradation mechanism. […] The saliva sample was serially diluted 1:2 in 1×PBS buffer to 1:512.90 μL aliquots of each of the 1:4, 1:16, 1:64, 1:128, 1:256, and 1:512 dilutions were added to pre-prepared microcentrifuge tubes containing 90 μL of undiluted insulin-glycogen. […] The gels were run in SDS running buffer for 45 minutes to an hour at a constant voltage of 150 V. Under these conditions, the amylase completely digested the insulin-glycogen conjugate into native MW insulin at the 1:16 dilution level as quantified by the relative band density of high MW conjugate to that of native MW insulin.
SDS-PAGE has confirmed that the insulin-glycogen conjugate is essentially free from unconjugated insulin (FIG. 5a). […] Serum was collected from the other catheter as a function of time and analyzed for fluorescence (fmax, Molecular Devices, Sunnyvale, Calif.) to determine glycogen absorption rate and insulin levels (RIA, Joslin Diabetes Center).

In another data set the test system is non-diabetic felines. Description: euglycemic clamp protocol in non-diabetic felines. Particulars: 0.5 U/kg conjugate (FIG. 6). It is filed as in vivo, feline.
Data set [2] concerns normal and STZ-diabetic rats. Description: disappearance of fluorescently labeled gel components from the injection site. It is filed as in vivo, rat. Particulars: gel injected under the skin. An excerpt:
The inventive gel of Example 21, has viscosity characteristics that allow easy loading and injection through a standard 27½G insulin syringe obviating the need for invasive surgery. […] This is necessary to avoid unwanted material accumulation after repeated daily dosing. To illustrate this point, gels were synthesized from (i) fluorescently-labeled insulin-glycogen conjugate (FITC-conjugate)/unlabeled Con A and (ii) unlabeled insulin-glycogen conjugate/fluorescently-labeled Con A (FITC-Con A) in the presence of India ink (SpeedBall® Superblack) and injected under the skin of both normal and STZ-diabetic rats on Days 2, 1, and 0 in order to simultaneously observe the injection site post-mortem and monitor the rate of disappearance of each of the components by fluorescence imaging.
Taken together, not only is the insulin-glycogen conjugate removed completely from the injection site, its rate of disappearance is dependent on the glycemic state of the animal (i.e. hyperglycemia leads to more rapid elimination of material from the site).

Setting [3] is: FIG. 4b, s.c. 2.5 U of conjugated insulin/kg, male SD rats.
The mark [4] stands for this setting: s.c. injection alone, normal male SD rats.
The mark [5] stands for this setting: s.c. 0.25 ml, fasted normal male SD rats.

Regarding “insulin-glycogen conjugate: human recombinant insulin covalently linked to glycogen by CNBr or CDAP coupling; glycogen source differs between examples”, in data set [1] (setting [3]), the “T70% BGL” value is approximately 150 min and the “Tnadir (blood glucose)” value fell in the range of 30 to 45 min. For the same substance, in data set [1] (setting [4]), the “time to reach glucose nadir (Tnadir)” value was 30 to 45 min and the “time to return to within 70% of fasting glucose levels (T70% BGL)” value is given as “less than 180 minutes”. The “speed of insulin action compared with unconjugated insulin” value in data set [1] (s.c., normal male SD rats) is reported as “acts just as rapidly as unconjugated insulin in vivo”. For the same substance, the degradation by amylases result in the data set with human salivary amylase was “rapidly degraded by amylases in vitro and in vivo”. In addition, in the data set with non-diabetic felines, the “conjugate bioactivity in euglycemic clamp” value was “confirmed the conjugate bioactivity”. Also, the “elimination from the injection site (fluorescence imaging)” value in data set [2] (STZ-diabetic rats) was “completely eliminated from the injection site in STZ-diabetic rats both one and two days after injection”. Further, in data set [2] (normal rats), the “elimination from the injection site (fluorescence imaging)” value is “still remained at the injection site after one day”.
“insulin-dextran: human recombinant insulin coupled to dextran (MW=70K) by CNBr; comparative conjugate [reference compound]”: in data set [1] (setting [5]), the “time serum glucose levels remain depressed post injection” value is “at least five”, the “time to reach the glucose nadir (Tnadir)” value is reported as “about 3 h” and the “time to return to within 70% of fasting glucose levels (T70% BGL)” value is “greater than 2.5 hours”.
